Measurements: ChEMBL document CHEMBL6178013, “Ferroptosis of Cancer Cells via Tubulin Degradation and Mitochondrial Dysfunction: A Novel Mechanism of Anticancer Effect for Small-Molecule Anion Transporters” (J Med Chem, 2025)
Activity calls are given as the source filed them. No cut-off for these calls is given here.

Key:
Chloride [1] = test: Binding affinity to chloride anions using tetrabutylammonium chloride salt assessed as association constant by 1H NMR spectroscopy
HeLa [2] = test: Induction of lipid peroxidation in human HeLa cells assessed as increase in green fluorescence at 0.1 to 1 uM incubated for 24 hrs by C11-BODIPY-581/591 probe based analysis; type: functional, cell-based; conditions: dose 0.1-1 µM
HeLa [3] = test: Antitumor activity against human HeLa cells xenografted in male Balb/C nude mouse assessed as average tumor size at 10 mg/kg, ip administered on every 2 days measured after 18 days (reference value: 1995.1 mm3); type: functional; conditions: time 18 day
[4] = Toxicity in male Balb/C nude mouse xenografted with human HeLa cells assessed as abnormalities in spleen at 10 to 20 mg/kg, ip administered on every 2 days measured after 18 days by H and E staining based analysis; type: organism-based; conditions: in vivo, 432 h, dose 10-20 mg/kg, time 18 day
HeLa [5] = test: Induction of mitochondrial membrane permeability in human HeLa cells assessed as red fluorescence at 0.1 uM incubated for 24 hrs by JC-1 staining based analysis (reference value: 98.5 %); type: functional
[6] = Toxicity in male Balb/C nude mouse xenografted with human HeLa cells assessed as abnormalities in lung at 10 to 20 mg/kg, ip administered on every 2 days measured after 18 days by H and E staining based analysis; type: organism-based; conditions: in vivo, 432 h, dose 10-20 mg/kg, time 18 day
[7] = AUC (0 to t) in male CD-1 mouse at 1 mg/kg, iv measured for 0.083 to 48 hrs by HPLC/MS/MS analysis; type: ADME, organism-based; conditions: in vivo, time 0.083-48 hrs
HeLa [8] = test: Cytotoxicity against human HeLa cells assessed as decrease in cell viability cultured in chloride-containing extracellular medium at 0.05 to 5 uM incubated for 12 hrs; type: functional, cell-based; conditions: dose 0.05-5 µM
HeLa [9] = test: Cytotoxicity against human HeLa cells assessed as decrease in cell viability at 0.01 to 10 uM pretreated with DFO followed by compound addition by MTT assay; type: functional, cell-based; conditions: dose 0.01-10 µM
HeLa [10] = test: Cytotoxicity against human HeLa cells assessed as decrease in cell viability at 0.01 to 10 uM pretreated with 3-MA followed by compound addition by MTT assay; type: functional, cell-based; conditions: dose 0.01-10 µM
Chloride [11] = test: Binding affinity to chloride anions assessed as chloride efflux in egg-yolk L-alpha-phosphatidylcholine liposome model harboring intravesicular LiCl/extravesicular NaNO3
HeLa [12] = test: Induction of lipid peroxidation in human HeLa cells by flow cytometry; type: functional, cell-based; conditions: dose 0.1-1 µM
[13] = MRT (0 to t) in male CD-1 mouse at 1 mg/kg, iv measured for 0.083 to 48 hrs by HPLC/MS/MS analysis; type: ADME, organism-based; conditions: in vivo, time 0.083-48 hrs
Chloride [14] = test: Binding affinity to chloride anions assessed as chloride efflux in egg-yolk L-alpha-phosphatidylcholine liposome model harboring intravesicular CsCl/extravesicular NaNO3
HeLa [15] = test: Induction of ferroptosis in human HeLa cells assessed as increase in Bad level at 0.1 to 1 uM incubated for 24 hrs by immunoblotting analysis; type: functional, cell-based; conditions: dose 0.1-1 µM
[16] = Toxicity in male Balb/C nude mouse xenografted with human HeLa cells assessed as abnormalities in heart at 10 to 20 mg/kg, ip administered on every 2 days measured after 18 days by H and E staining based analysis; type: organism-based; conditions: in vivo, 432 h, dose 10-20 mg/kg, time 18 day
[17] = MRT (0 to t) in male CD-1 mouse at 1 mg/kg, ip measured for 0.083 to 48 hrs by HPLC/MS/MS analysis; type: ADME, organism-based; conditions: in vivo, time 0.083-48 hrs
Chloride [18] = test: Binding affinity to chloride anions assessed as chloride efflux in egg-yolk L-alpha-phosphatidylcholine liposome model harboring intravesicular NaCl/extravesicular NaHCO3
HeLa [19] = test: Cytotoxicity against human HeLa cells assessed as decrease in cell viability at 0.01 to 10 uM pretreated with Z-VAD-FMK followed by compound addition by MTT assay; type: functional, cell-based; conditions: dose 0.01-10 µM
[20] = Toxicity in male Balb/C nude mouse xenografted with human HeLa cells assessed as body weight change at 20 mg/kg, ip administered on every 2 days measured after 18 days; type: organism-based; conditions: in vivo, 432 h, time 18 day
HeLa [21] = test: Cytotoxicity against human HeLa cells incubated for 48 hrs by MTT assay; type: functional, cell-based
[22] = biological target: Tubulin alpha (Homo sapiens) (UniProt P0DPH7+P68366+Q71U36+P68363+Q9BQE3+Q6PEY2+A6NHL2+Q9NY65); test: Induction of alpha-tubulin degradation in human HeLa cells at 1 uM preincubated with MG132 followed by compound addition measured after 24 hrs by immunoblotting analysis; type: cell-based
Chloride [23] = test: Binding affinity to chloride anions in human HeLa cells assessed as increase in chloride influx at 1 uM measured after 30 to 60 mins by inverted fluorescence microscopy; type: cell-based; conditions: time 30-60 min
HeLa [24] = test: Effect on ferroptosis pathway in human HeLa cells at 10 uM incubated for 48 hrs by KEGG analysis; type: functional, cell-based
Chloride [25] = test: Binding affinity to chloride anions assessed as fold increase in anionophoric activity in egg-yolk L-alpha-phosphatidylcholine liposome model measured per lipid by pyranine-based fluorescent assay relative to m-Bimbe
HeLa [26] = test: Antitumor activity against human HeLa cells xenografted in male Balb/C nude mouse assessed as decrease in beta III-tubulin level at 10 to 20 mg/kg, ip administered on every 2 days measured after 18 days by immunoblotting analysis; type: functional, organism-based; conditions: dose 10-20 mg/kg, time 18.0 day
HeLa [27] = test: Induction of lipid peroxidation in human HeLa cells assessed as increase in ROS generation incubated for 24 hrs by DCFH-DA probe based fluorescence microscopy; type: functional, cell-based; conditions: dose 0.1-1 µM
HeLa [28] = test: Induction of ferroptosis in human HeLa cells assessed as decrease in Bcl-2 level at 0.1 to 1 uM incubated for 24 hrs by immunoblotting analysis; type: functional, cell-based; conditions: dose 0.1-1 µM

Fc1cc(-c2nc3c(C(F)(F)F)cc(C(F)(F)F)cc3[nH]2)cc(-c2nc3c(C(F)(F)F)cc(C(F)(F)F)cc3[nH]2)c1
Ka (Chloride [1]): 1.48 10^3/M | Activity (HeLa [2]): Active | Activity (HeLa [3]): 850.9 mm3 | Activity [4]: Non-toxic | Activity (HeLa [5]): 90.5% | Activity [6]: Non-toxic | AUC(0-t) [7]: 17500 ng·h/mL | Activity (HeLa [8]): Active | Activity (HeLa [9]): inactive | Activity (HeLa [10]): Active | Activity (Chloride [11]): Active | Activity (HeLa [12]): Dose-dependent-effect | MRT last [13]: 2.64 h | Activity (Chloride [14]): Active | Activity (HeLa [15]): Active | Activity [16]: Non-toxic | MRT last [17]: 24.9 h | Activity (Chloride [18]): Active | Activity (HeLa [19]): Not active; Z-Vad-Fmk Exhibited Partial Protection For Cells | Activity [20]: Non-toxic | IC50 (HeLa [21]): 120 nM | Activity [22]: inactive | Activity (Chloride [23]): Active | Activity (HeLa [24]): Active | fold change (FC) (Chloride [25]): 2.32 10^2No_unit | Activity (HeLa [26]): Active | Activity (HeLa [27]): Dose-dependent-effect | Activity (HeLa [28]): Active
